Data taken from patent US20140228302A1, “COMPOUNDS, COMPOSITIONS AND METHODS FOR TREATING OR PREVENTING HYPOXIC OR ISCHEMIC INJURY” (FRED HUTCHINSON CANCER RESEARCH CENTER, priority 2010, published 2014).
≈ marks a conversion by molar mass, not a printed value. Entries after “also recorded” stand apart in the source; their conditions may differ. Where two headings read alike, the source gives them in different places. One block for each compound: values may come before it.

Assays:
[1] = Comparative solubility data (Table 1); format: physicochemical
Description: (§1) This allows formulation in aqueous solution at high concentration, which is important for preparing parenteral dosage forms.

[2] = Comparative vehicle data (Table 2); format: physicochemical
Description: as §1

mouse = conditions: cited from earlier work
rat = conditions: cited from earlier work
dog = conditions: cited from earlier work
mammals = conditions: many mammals; cited from earlier work
[3] = Generation of biologically available sulfide in whole rat blood and inhibition by NAEM; format: in vitro ADME
Procedure: The chemical nature of biologically available sulfide in blood was probed with the thiol-reactive reagent N-aminoethyl-maleimide (NAEM) which binds to free thiols and perthiols on proteins and blocks them from participating further in thiol-mediated chemical reactions. Biologically available sulfide was generated in blood by adding 1.3 mM bis-N-acetyl-cystine-trisulfide to 2 mL of whole rat blood. Biologically available sulfide was measured by derivatization with mono-bromo-bimane and levels of bis-N-acetyl-cystine-trisulfide in blood were followed by LC/MS/MS.

[4] = Stability of the dosing solution; format: physicochemical; conditions: 30 mg/mL dosing solution
Procedure: In one more exemplary embodiment of the methods of making the pharmaceutical compositions of the invention, a dosing solution of bis-N-acetyl-cystine-trisulfide at 30 mg/mL is prepared by weighing the desired amount of solid bis-N-acetyl-cystine-trisulfide into a clear glass vial and chilling the vial to −20° C. The solvent is prepared by chilling a suitable amount of a mixture of 1 volumes of 0.5N NaOH in saline and 2 volumes of above vehicle solution to between 0° C. and 4° C. One mL of this solvent is added to the vial per 30 mg of bis-N-acetyl-cystine-trisulfide contained and the resulting suspension mixed immediately until the solid is fully dissolved. This dosing solution of bis-N-acetyl-cystine-trisulfide is stable for at least 1.5 hours at room temperature and for at least 24 hours when frozen at −20° C. The dosing solution is warmed to room temperature prior to intravenous injection.
Method: Vehicle solution was prepared by mixing 1 volume of solution B, 4 volumes of solution A, and 36 volumes of saline. The pH of the resulting vehicle solution is about 6. To prepare a bis-N-acetyl-cysteine-trisulfide dosing solution at a concentration of 30 mg/ml and about pH 6, the appropriate amount of bis-N-acetyl-cystine-trisulfide was weighed into a clear glass vial and cooled to −20° C. Solutions B and A were mixed at a 1:2 volume ratio, vortexed, and cooled to 4° C. on ice. […]

[5] = Pharmacokinetics of biologically available blood sulfide and plasma thiosulfate after intravenous administration; format: in vivo, Sprague Dawley rats; conditions: rat, IV bolus 16 or 32 mg/kg
Procedure: Pharmacokinetic experiments were conducted with groups of two to four animals consisting of 9-10 week old, male Sprague Dawley rats, 276-300 grams (Charles River Laboratories, Wilmington, Mass.) with a jugular vein catheter and a femoral vein catheter. Animals were allowed to acclimate in a temperature and humidity controlled environment for 1-3 days prior to the commencement of experimental procedures. Food and water were provided ad libitum.
A baseline blood sample (˜0.4 mL) was collected from each rat through the jugular vein cannula into a heparin-coated syringe (1 mL volume) fitted with a 23G Luer stub adapter. After sampling, the blood volume was replenished by slowly injecting 0.4 mL of a solution of 50 u/mL heparin in saline through the jugular vein cannula.

[6] = Free sulfide in blood measured with sulfide-specific electrode in vena cava; format: in vivo, CD rats; conditions: rat, 20 mg/kg IV over 1 min, monitored 30 min
Description: Male CD rats (350-450 g, Charles River Laboratories) were anesthetized by IV pentobarbital injection and the right jugular vein carefully exposed and dissected away from the surrounding tissue. An amperometric hydrogen sulfide sensor (World Precision Instruments, Sarasota, Fla., Cat. #ISO-H2S-2) was inserted into the jugular and advanced into the vena cava. Sensor current was monitored using a Powerlab 8/30 (ADInstruments, Colorado Springs, Colo.). Once a stable baseline current was attained, the animals received either vehicle (pH matched saline) or bis-N-acetyl-cystine-trisulfide (20 mg/kg) administered over 1 min via a left femoral vein catheter, and sensor current was monitored over 30 min. Changes in current were calibrated against an IK-1001 standard curve generated with the sensor in deoxygenated 50 mM HEPES, 150 mM NaCl, 1 mM DTPA at 37° C. and pH 7.4.

[7] = Maximum tolerated dose, intravenous injection; conditions: mouse, in vivo; mice, intravenous injections
Description: The absence of free sulfide is reflected in the low toxicity of the sulfide-releasing compounds.

[8] = system: livers of mice, injury by dGal/LPS; experiment: Protection from endotoxin (dGal/LPS)-induced liver damage; format: in vivo, C57BL/6 mice
Procedure: Male C57BL/6 mice, (22 to 24 g, Charles River Laboratories) were acclimated in a temperature and humidity controlled environment for 1-3 days prior to commencement of the experimental procedures. All cages were placed on water heating pads set at 30° C. Liver injury was caused by injecting mice intraperitoneally with 800 mg/kg d-Galactosamine (dGal), followed 30 min later by 100 μg/kg lipopolysaccharide (LPS) (FIG. 4) or with 1000 mg/kg dGal, followed 30 min later by 120 μg/kg LPS (FIG. 5). Bis-N-acetyl-cystine-trisulfide at 20 mg/kg (FIG. 4) or 40 and 60 mg/kg (FIG. 5), or vehicle were injected intraperitoneally 30 min later. Blood was collected by cardiac puncture under isoflurane anesthesia five hours after LPS injection. Serum was prepared and markers of liver injury, alanine aminotransferase (ALT) and aspartate aminotransferase (AST) measured.

[9] = system: livers of mice, ischemia/reperfusion (I/R) injury; experiment: Protection from ischemia/reperfusion-induced liver damage; format: in vivo, C57BL/6 mice; conditions: last 5 min of 45 min occlusion, ALT five hours after reperfusion
Procedure: C57BL/6 mice were anesthetized with a ketamine/xylazine combination given via intraperitoneal injection. A midline laparotomy was performed to expose the viscera and the stomach and intestines were moved laterally to allow for unimpeded visualization of the liver. A micoaneurysm clip was applied to the hepatic artery and portal vein to create a partial liver ischemia encompassing the medial and left lateral lobes (approximately 70% of the liver). […] The aneurysm clips were removed at 45 minutes to restore hepatic blood flow which was confirmed visually. The abdominal incision was closed using wound clips and animals were recovered in a warmed chamber with 100% oxygen. Five hours after reperfusion, blood was collected by cardiac puncture to measure serum alanine aminotransferase (ALT).

[10] = 17% HPBCD, aqueous with cosolvent or surfactant or cyclodextrin, read-out: Solubility 17% HPBCD
[11] = 20% PEG400, aqueous with cosolvent or surfactant or cyclodextrin, read-out: Solubility 20% PEG400
[12] = water, read-out: Solubility Water
[13] = rat blood pretreated with 20 mM NAEM for 30 min

Compound: O=C(O)CCSSSCCC(=O)O
solubility ([1]; aqueous with cosolvent or surfactant or cyclodextrin, 45% HPBCD (stated in the cell of the 17% HPBCD column), read-out: Solubility 45% HPBCD): > 20000 µg/mL | Solubility Water ([1]; water): poor

Compound: CC(=O)N[C@@H](CSSSCCc1ccccc1)C(=O)O
solubility [1, 10]: 18000 µg/mL (≈ 54300 µM) | Solubility Water ([1]; water): poor

Compound: N[C@@H](CSSSC[C@H](N)C(=O)O)C(=O)O
Solubility in words ([1]; water, 90% PEG400, 45% HPBCD, 45% Captisol, 2% Tween 80, 25% cremophor): Not soluble in water, 90% PEG400, 45% HPBCD, 45% Captisol, 2% Tween 80, 25% cremophor

Compound: C=CCSSCC=C [Di-allyl di-sulfide]
Preferred Vehicle [2]: 40% HPBCD/0.1% citric acid

Compound: CC(=O)N[C@@H](CS)C(=O)O [N-acetyl-cysteine]
LD50 IV (mouse): 3,800 mg/kg | LD50 IV (rat): 1,140 mg/kg | LD50 IV (dog): 700 mg/kg | intravenous LD50 (mammals): ≥ 300 mg/kg

Compound: NCCN1C(=O)C=CC1=O [NAEM, N-aminoethyl-maleimide]
Time until consumed in blood ([3]; 20 mM NAEM, preincubation with rat blood): ≤ 1 min | Effect on consumption of bis-N-acetyl-cystine-trisulfide [3, 13]: reduced consumption | Effect on production of biologically available sulfide [3, 13]: almost completely blocked | Effect on production of biologically available sulfide ([3]; rat blood pretreated with 20 mM NAEM for 30 min, listed as N-aminoethyl-maleimide (NAEM)): reduces the generation of biologically available sulfide

Compound: CC(=O)N[C@@H](CSSSC[C@H](NC(C)=O)C(=O)O)C(=O)O [bis-N-acetyl-cystine-trisulfide, (R,R′)-3,3′-trithiobis-2-acetamidopropanoic acid]
Water solubility compared to other polysulfides ([1]; water): unexpectedly high water solubility | Stability of dosing solution at room temperature ([4]; about pH 6, room temperature): at least 1.5 hours | Stability of dosing solution frozen ([4]; frozen at −20° C.): at least 24 hours | Plasma thiosulfate ([5]; ion chromatography): paralleled blood levels of biologically available sulfide; also recorded: elevation of plasma thiosulfate | Biologically available sulfide in blood ([5]; mono-bromo-bimane derivatization): dose-dependent elevation | Free sulfide in blood [6]: No free sulfide was detectable; also recorded: does not lead to any measurable increase | MTD [7]: ~500 mg/kg | Liver injury (serum ALT and AST) ([8]; 20 mg/kg IP bolus 30 min after LPS, 800 mg/kg dGal, 100 μg/kg LPS, vs vehicle): reduced liver injury | Endotoxin-induced liver injury (ALT, AST) ([8]; 20, 40 and 60 mg/kg IP, blood five hours after LPS (FIGS. 4 and 5)): protected from endotoxin-induced liver injury | Liver injury (serum ALT) ([8]; 40 and 60 mg/kg IP bolus 30 min after LPS, 1000 mg/kg dGal, 120 μg/kg LPS, vs vehicle): reduced liver injury | Liver ischemia/reperfusion injury (ALT) ([9]; intravenous bolus 5, 20 or 60 mg/kg): protection of the livers; also recorded: protected the liver from ischemia/reperfusion injury | Time until consumed in blood ([3]; 1.3 mM in 2 mL whole rat blood, LC/MS/MS): ≤ 5 min | Generation of biologically available sulfide in blood ([3]; 1.3 mM in whole rat blood, mono-bromo-bimane derivatization): generating biologically available sulfide | Preferred Vehicle [2]: aqueous

Compound: CS(=O)(=O)N[C@@H](CSSSC[C@H](NS(C)(=O)=O)C(=O)O)C(=O)O [bis-N-methylsulfonyl-cystine-trisulfide, (R,R′)-3,3′-trithiobis-2-(methylsulfonylamido)propanoic acid]
Water solubility compared to other polysulfides ([1]; water): unexpectedly high water solubility | Liver ischemia/reperfusion injury (ALT) ([9]; intravenous bolus 2, 5 or 20 mg/kg): protected the liver from ischemia/reperfusion injury | Liver ischemia/reperfusion injury (ALT) ([9]; intravenous bolus 2, 5 or 20 mg/kg, listed as bis-N-methylsulfonamide-cystine-trisulfide): protection of the livers

Compound: CC(=O)N[C@@H](CSSSC[C@H](NC(C)=O)C(=O)O)C(=O)O [drawing 49]
solubility [1, 12]: > 40000 µg/mL

Compound: CS(=O)(=O)N[C@@H](CSSSC[C@H](NS(C)(=O)=O)C(=O)O)C(=O)O [drawing 50]
solubility [1, 12]: > 80000 µg/mL

The next lines start with the values.

solubility [1, 10]: > 6000 µg/mL | solubility [1, 11]: 110 µg/mL (≈ 416 µM) | solubility [1, 12]: 37 µg/mL (≈ 140 µM)
Compound: OCCSSSSCc1ccccc1

solubility [1, 11]: 310 µg/mL (≈ 1060 µM) | solubility [1, 12]: 220 µg/mL (≈ 750 µM)
Compound: c1ccc(CCSSSCc2cccnc2)cc1

solubility [1, 11]: 240 µg/mL (≈ 724 µM) | solubility [1, 12]: 100 µg/mL (≈ 302 µM)
Compound: COC(=O)[C@H](CSSSCc1ccccc1)NC(C)=O

solubility [1, 10]: 6600 µg/mL (≈ 22400 µM) | solubility [1, 11]: 230 µg/mL (≈ 781 µM) | solubility [1, 12]: 150 µg/mL (≈ 509 µM)
Compound: OCC(O)CSSSSCc1ccccc1 (stereo not shown)
